According to ChEMBL document CHEMBL1201862, “PubChem BioAssay data set” (2004):
Each block holds one compound with its values, some of them ahead of it. Active and inactive are the calls of the source.

What was measured:
[1] = Trypanosoma cruzi growth suppression in host cells – NIH3T3 host cells, beta-gal luminescence, confirmation (AID 2044); assay type: functional, cell-based;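 note: intracellular parasites grown in NIH/3T3 mouse fibroblasts as host cells; luminescent beta-galactosidase reporter signal from transgenic T. cruzi replicating inside host cells; inhibitors lower the luminescence signal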
[2] = NIH3T3 cell viability loss – ATP luminescence, mouse fibroblasts, counter-screen, dose response (AID 2010); assay type: functional, cell-based;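 note: cells exposed to compound for about 90 hours before reading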
[3] = biological target: T1, DNA repair protein RAD52 homolog (Homo sapiens, UniProt P43351); assay type: functional, biochemical
T1 sequence (P43351 whole entry): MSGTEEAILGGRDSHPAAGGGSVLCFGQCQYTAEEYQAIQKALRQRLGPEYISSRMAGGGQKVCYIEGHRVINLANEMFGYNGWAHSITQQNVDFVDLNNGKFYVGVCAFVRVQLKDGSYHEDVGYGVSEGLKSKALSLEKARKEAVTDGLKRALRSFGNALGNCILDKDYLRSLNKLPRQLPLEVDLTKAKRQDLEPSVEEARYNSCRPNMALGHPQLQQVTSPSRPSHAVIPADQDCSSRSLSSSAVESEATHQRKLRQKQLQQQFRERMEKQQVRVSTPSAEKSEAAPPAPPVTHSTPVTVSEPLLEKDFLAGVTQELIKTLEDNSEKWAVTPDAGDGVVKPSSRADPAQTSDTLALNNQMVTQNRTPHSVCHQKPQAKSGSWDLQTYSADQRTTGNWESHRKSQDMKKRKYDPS

Prothrombin = Prothrombin (Homo sapiens, UniProt P00734); experiment: Thrombin 1536 HTS Dose Response Confirmation. [Related pubchem assays: 1046 (Thrombin 1536 HTS; hits were confirmed in this assay)]; assay type: functional
Estrogen receptor = biological target: T2, Estrogen receptor (Homo sapiens, UniProt P03372);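 note: potency for inhibiting coactivator peptide recruitment to the receptor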
T2 sequence (P03372 whole entry): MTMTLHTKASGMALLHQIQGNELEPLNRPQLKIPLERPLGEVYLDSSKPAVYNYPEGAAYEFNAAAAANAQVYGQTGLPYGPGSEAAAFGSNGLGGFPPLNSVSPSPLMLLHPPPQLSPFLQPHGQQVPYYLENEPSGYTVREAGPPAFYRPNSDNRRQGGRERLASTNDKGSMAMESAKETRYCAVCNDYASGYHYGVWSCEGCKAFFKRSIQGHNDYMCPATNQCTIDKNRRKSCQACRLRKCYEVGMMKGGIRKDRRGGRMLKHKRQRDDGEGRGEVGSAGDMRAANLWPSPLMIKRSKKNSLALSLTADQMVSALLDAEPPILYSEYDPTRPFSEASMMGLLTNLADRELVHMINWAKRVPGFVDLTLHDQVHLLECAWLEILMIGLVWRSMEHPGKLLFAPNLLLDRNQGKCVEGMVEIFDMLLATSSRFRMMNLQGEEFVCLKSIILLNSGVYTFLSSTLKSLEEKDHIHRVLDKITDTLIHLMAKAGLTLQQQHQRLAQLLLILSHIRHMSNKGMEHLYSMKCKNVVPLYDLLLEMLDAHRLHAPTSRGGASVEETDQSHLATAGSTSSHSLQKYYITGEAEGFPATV

Fatty acid synthase [4] = biological target: T3, Fatty acid synthase (Homo sapiens, UniProt P49327); experiment: inhibition of human FAS-TE enzyme activity – biochemical, endpoint fluorescence intensity, uHTS hits, dose response (AID 624327); assay type: functional;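 note: fluorescence from hydrolysis of an O-methyl fluorescein acyl ester substrate by the enzyme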
Fatty acid synthase [5] = biological target: T3, Fatty acid synthase; experiment: inhibition of human FAS-TE enzyme activity – biochemical, kinetic fluorescence intensity, dose response (AID 624326); assay type: functional;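 note: rate of fluorescence rise from hydrolysis of a fluorogenic O-methyl fluorescein ester substrate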
[6] = biological target: T4, Heat shock factor protein 1 (Mus musculus, UniProt P38532); experiment: enhancement of HSF1-driven luciferase signal – cell-based, NIH3T3, luminescence, dose retest, confirmation (AID 435004); assay type: functional;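 note: stress induced by proteasome inhibitor MG132 added 30 min after compound; luciferase reporter driven by HSF1 response element in NIH3T3 cells; actives raise luminescence as potentiators of the MG132 stress response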
T4 sequence (P38532 whole entry): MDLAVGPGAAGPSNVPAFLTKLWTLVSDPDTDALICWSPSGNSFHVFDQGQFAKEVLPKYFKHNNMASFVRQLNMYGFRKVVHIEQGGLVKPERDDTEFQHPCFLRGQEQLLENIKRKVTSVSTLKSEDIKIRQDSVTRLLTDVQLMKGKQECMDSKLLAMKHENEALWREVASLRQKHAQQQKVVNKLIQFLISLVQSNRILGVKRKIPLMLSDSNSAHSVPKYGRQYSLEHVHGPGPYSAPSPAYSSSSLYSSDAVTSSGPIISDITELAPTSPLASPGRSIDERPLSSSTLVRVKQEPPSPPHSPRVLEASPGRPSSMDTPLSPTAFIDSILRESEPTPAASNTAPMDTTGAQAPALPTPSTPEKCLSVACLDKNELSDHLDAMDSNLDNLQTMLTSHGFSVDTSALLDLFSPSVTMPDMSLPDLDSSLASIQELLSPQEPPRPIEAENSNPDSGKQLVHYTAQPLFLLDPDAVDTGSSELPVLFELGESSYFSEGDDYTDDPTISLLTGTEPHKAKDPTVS

[7] = biological target: T5, Corticotropin-releasing factor receptor 2/Corticotropin-releasing factor-binding protein (Homo sapiens, UniProt P24387+Q13324); experiment: activators of CRF receptor 2 with binding protein – uHTS hits, confirmation (AID 602473); assay type: functional; details: read-out: EC50_Mean
T5 sequence (Q13324 whole entry): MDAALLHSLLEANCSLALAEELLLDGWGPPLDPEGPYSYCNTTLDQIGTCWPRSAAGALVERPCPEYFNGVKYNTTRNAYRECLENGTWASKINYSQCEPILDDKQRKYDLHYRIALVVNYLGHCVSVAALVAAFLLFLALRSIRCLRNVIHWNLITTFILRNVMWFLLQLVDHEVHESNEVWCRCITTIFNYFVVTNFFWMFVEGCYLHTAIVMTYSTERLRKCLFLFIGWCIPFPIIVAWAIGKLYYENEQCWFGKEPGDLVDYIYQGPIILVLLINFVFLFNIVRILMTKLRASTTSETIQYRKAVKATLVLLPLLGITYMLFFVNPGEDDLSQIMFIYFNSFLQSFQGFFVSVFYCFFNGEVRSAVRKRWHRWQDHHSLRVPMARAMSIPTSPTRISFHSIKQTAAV
T5 sequence (P24387 whole entry): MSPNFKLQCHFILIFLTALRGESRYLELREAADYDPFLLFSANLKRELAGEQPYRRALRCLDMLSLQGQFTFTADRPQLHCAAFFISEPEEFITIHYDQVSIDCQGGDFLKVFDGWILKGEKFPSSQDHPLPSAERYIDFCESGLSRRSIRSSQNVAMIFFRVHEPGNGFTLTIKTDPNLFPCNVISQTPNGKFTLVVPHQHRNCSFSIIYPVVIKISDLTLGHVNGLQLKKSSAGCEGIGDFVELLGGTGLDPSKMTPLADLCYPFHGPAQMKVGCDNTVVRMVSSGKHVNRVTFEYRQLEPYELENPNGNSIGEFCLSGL

T3 sequence (P49327 whole entry): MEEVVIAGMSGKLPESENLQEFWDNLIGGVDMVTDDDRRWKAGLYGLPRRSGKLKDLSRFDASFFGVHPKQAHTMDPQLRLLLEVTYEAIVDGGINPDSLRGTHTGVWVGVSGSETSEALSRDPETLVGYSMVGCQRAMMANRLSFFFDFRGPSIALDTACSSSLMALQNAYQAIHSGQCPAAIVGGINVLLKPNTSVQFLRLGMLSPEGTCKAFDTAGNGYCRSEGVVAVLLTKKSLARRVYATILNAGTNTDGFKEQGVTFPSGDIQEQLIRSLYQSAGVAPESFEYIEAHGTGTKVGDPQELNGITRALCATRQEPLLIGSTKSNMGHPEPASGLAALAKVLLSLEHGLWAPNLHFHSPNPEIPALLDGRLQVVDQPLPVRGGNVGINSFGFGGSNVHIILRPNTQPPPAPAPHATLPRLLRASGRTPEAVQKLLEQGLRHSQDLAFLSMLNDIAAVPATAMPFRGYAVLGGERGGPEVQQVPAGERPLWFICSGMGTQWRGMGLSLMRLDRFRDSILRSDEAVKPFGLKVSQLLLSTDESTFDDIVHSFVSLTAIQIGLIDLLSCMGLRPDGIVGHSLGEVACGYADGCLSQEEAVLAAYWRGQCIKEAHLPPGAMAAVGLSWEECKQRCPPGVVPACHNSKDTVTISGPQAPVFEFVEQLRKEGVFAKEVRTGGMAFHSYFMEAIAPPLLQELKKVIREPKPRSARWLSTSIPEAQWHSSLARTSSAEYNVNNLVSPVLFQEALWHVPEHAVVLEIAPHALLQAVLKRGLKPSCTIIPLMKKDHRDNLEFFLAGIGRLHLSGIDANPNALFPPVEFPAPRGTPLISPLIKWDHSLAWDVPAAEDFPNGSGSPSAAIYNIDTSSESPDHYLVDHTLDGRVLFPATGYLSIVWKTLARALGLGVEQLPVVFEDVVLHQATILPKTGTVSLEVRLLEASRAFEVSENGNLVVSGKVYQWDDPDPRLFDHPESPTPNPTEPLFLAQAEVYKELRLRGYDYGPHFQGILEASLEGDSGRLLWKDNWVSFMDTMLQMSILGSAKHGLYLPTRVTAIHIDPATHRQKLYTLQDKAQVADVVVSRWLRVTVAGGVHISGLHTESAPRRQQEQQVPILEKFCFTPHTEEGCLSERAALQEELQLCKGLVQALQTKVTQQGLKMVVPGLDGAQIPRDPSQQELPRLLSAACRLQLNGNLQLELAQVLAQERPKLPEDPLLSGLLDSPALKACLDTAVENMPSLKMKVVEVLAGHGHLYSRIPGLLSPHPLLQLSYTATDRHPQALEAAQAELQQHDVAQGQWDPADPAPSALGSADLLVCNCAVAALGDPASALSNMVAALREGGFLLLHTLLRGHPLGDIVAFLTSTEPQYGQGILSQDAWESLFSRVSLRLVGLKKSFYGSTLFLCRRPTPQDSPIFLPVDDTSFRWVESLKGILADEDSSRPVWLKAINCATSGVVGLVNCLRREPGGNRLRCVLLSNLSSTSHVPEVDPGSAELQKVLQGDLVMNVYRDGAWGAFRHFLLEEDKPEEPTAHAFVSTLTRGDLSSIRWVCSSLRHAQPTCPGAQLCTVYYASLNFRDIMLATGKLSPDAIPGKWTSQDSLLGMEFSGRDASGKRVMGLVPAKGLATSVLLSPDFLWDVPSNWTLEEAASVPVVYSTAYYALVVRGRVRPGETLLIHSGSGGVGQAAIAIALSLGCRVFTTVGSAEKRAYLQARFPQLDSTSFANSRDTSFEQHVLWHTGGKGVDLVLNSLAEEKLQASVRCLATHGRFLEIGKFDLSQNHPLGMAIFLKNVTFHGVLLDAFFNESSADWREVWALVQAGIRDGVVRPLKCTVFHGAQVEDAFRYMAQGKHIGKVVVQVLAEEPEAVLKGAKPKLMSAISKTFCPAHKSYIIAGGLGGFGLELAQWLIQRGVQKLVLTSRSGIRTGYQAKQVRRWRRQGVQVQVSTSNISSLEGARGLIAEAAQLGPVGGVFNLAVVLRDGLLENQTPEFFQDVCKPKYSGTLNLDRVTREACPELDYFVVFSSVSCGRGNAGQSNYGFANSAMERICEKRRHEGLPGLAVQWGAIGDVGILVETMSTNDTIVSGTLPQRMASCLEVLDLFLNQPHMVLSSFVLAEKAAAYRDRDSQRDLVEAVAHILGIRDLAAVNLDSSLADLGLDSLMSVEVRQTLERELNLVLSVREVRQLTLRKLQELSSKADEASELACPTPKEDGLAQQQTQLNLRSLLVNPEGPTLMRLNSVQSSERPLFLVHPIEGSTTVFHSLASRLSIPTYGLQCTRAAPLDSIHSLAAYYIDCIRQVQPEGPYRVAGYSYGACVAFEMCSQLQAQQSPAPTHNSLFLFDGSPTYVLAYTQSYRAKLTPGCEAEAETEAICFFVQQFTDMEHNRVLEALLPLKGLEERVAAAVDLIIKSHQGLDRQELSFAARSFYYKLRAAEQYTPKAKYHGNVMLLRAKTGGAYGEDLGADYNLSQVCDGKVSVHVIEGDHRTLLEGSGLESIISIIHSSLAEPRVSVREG

Compound: Cc1cc(C)c2nc(N(CCCN(C)C)C(=O)c3ccc4c(c3)CCCC4)sc2c1
- EC50 [1]: 0.727 µM (active)
- EC50 [2]: 4.48 µM (active)
- AC50 [3]: 13.4 µM (active)

Compound: COCCNC(=O)Cn1nc(C(F)(F)F)cc1C
- IC50 (Prothrombin): > 50 µM (not active)

Compound: Cc1ccc(C(=O)n2cnnc2N)cc1
- EC50 [6]: > 260 µM (inactive)
- IC50 (Prothrombin): 4.05 µM (active)

Second part, the compound after the results:

- IC50 (Estrogen receptor): > 50 µM (not active)
Compound: CCOC(=O)Cc1ccc(NS(=O)(=O)c2ccc(SC)cc2)cc1

- IC50 (Fatty acid synthase [4]): 1.84 µM (active)
- IC50 (Fatty acid synthase [5]): 1.44 µM (active)
- IC50 (Prothrombin): > 50 µM (not active)
Compound: CCOc1ccc(C2CC(=O)N(Nc3ccc([N+](=O)[O-])cc3[N+](=O)[O-])C2=O)cc1 (centres undefined)

- AC50 [3]: 5.08 µM (active)
Compound: COc1cc(/C=C2\SC(=O)N(CCN)C2=O)ccc1OS(=O)(=O)c1cc(C)ccc1C

- EC50 [7]: > 53 µM (inactive)
- IC50 (Prothrombin): 1.06 µM (active)
Compound: Cn1c(CN2CCCCC2)nc2cc(NS(=O)(=O)c3ccc(Cl)cc3)ccc21

- IC50 (Prothrombin): 0.321 µM (active)
Compound: Cn1c(=O)c2cc(NC(=O)c3ccccc3Cl)c(=O)oc2n(C)c1=O
